# Experiments:
# [1] = system: giant foxtail; test: Test B pre/postemergence giant foxtail; format: in vivo, Setaria faberii
# Method in brief: (§1)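 Herbicidal effect was estimated by eye on a ten-point control scale after plants spent twelve to sixteen days in a greenhouse following soil or foliar treatment. Foliar sprays targeted plants at one to four leaves; all doses were formulated in a non-phytotoxic solvent with surfactant.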
# [2] = system: crabgrass; test: Test B pre/postemergence crabgrass; format: in vivo, Digitaria sanguinalis
# Method in brief: as §1
# [3] = system: sugar beet; test: Test B pre/postemergence sugar beet; format: in vivo, Beta vulgaris; details: for Plant response rating, Sugarbeets: Postemergence
# Method in brief: as §1
# [4] = system: smallflower flatsedge; test: Test B flood test smallflower flatsedge; format: in vivo, Cyperus difformis
# Method in brief: (§2)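 Flood test on plants grown to the 2-leaf stage; treated plants kept in greenhouse twelve to sixteen days, then visually rated against controls on a 0 (no effect) to 10 (complete control) scale.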
# [5] = system: cocklebur; test: Test B pre/postemergence cocklebur; format: in vivo, Xanthium strumarium
# Method in brief: as §1
# [6] = system: rice; test: Test B flood test rice; format: in vivo, Oryza sativa
# Method in brief: as §2
# [7] = system: blackgrass; test: Test B pre/postemergence blackgrass; format: in vivo, Alopecurus myosuroides
# Method in brief: as §1
# [8] = system: surinam grass; test: Test B pre/postemergence surinam grass; format: in vivo, Brachiaria decumbens
# Method in brief: as §1
# [9] = system: velvetleaf; test: Test B pre/postemergence velvetleaf; format: in vivo, Abutilon theophrasti; details: for Plant response rating, Velvetleaf: Postemergence
# Method in brief: as §1
# [10] = system: corn; test: Test B pre/postemergence corn; format: in vivo, Zea mays
# Method in brief: as §1
# [11] = system: wild oat; test: Test B pre/postemergence wild oat; format: in vivo, Avena fatua; details: for Plant response rating, Wild oats: Postemergence
# Method in brief: as §1
# [12] = system: soybean; test: Test B pre/postemergence soybean; format: in vivo, Glycine max; details: for Plant response rating, Soybean: Postemergence
# Method in brief: as §1
# [13] = system: rape; test: Test B pre/postemergence rape; format: in vivo, Brassica napus
# Method in brief: as §1
# [14] = system: duck salad; test: Test B flood test duck salad; format: in vivo, Heteranthera limosa
# Method in brief: as §2
# [15] = system: bamyardgrass; test: Test B flood test barnyardgrass; format: in vivo, Echinochloa crus-galli
# Method in brief: as §2
# [16] = system: purple nutsedge; test: Test B pre/postemergence purple nutsedge; format: in vivo, Cyperus rotundus
# Method in brief: as §1
# [17] = system: morningglory; test: Test B pre/postemergence morningglory; format: in vivo, Ipomoea hederacea
# Method in brief: as §1
# [18] = system: wheat; test: Test B pre/postemergence wheat; format: in vivo, Triticum aestivum; details: for Plant response rating, Wheat: Postemergence
# Method in brief: as §1
# [19] = system: bedstraw; test: Test B pre/postemergence bedstraw; format: in vivo, Galium aparine
# Method in brief: as §1
# [20] = system: pigweed; test: Test B pre/postemergence pigweed; format: in vivo, Amaranthus retroflexus; details: for Plant response rating, Redroot pigweed: Postemergence
# Method in brief: as §1
# [21] = Postemergence, Rate 62 g/ha, scale of 0 to 10, 0 is no effect, 10 is complete control
# [22] = Postemergence, Rate 125 g/ha, scale 0 to 10, 0 is no effect, 10 is complete control
# [23] = Postemergence, Rate 500 g/ha, scale of 0 to 10 where 0 is no effect and 10 is complete control
# [24] = Preemergence, Rate 62 g/ha, scale 0 to 10 (0 no effect, 10 complete control)
# [25] = Preemergence, Rate 125 g/ha, scale 0 to 10, 0 is no effect, 10 is complete control
# [26] = Preemergence, Rate 500 g/ha, scale of 0 to 10 where 0 is no effect and 10 is complete control
# [27] = Rate 250 g/ha, Postemergence, scale of 0 to 10 where 0 is no effect and 10 is complete control
# [28] = Rate 500 g/ha, scale of 0 to 10 where 0 is no effect and 10 is complete control
# [29] = Rate 250 g/ha, scale of 0 to 10 where 0 is no effect and 10 is complete control
# [30] = Rate 62 g/ha, flood test species, Pre-emergence, visual evaluation after twelve to sixteen days
# [31] = Rate 125 g/ha, under heading Pre-emergence, flood test species, visual evaluation after twelve to sixteen days
# [32] = Rate 250 g/ha, Pre-emergence (flood test species), scale 0 to 10, 0 is no effect, 10 is complete control
# [33] = Rate 500 g/ha, Pre-emergence section of Table B, 0 to 10 scale (0 no effect, 10 complete control)
smiles,measurement,setting,value
CC(C)N(C(=O)n1oc(=O)n(CC2CC2)c1=O)c1ccccc1 [Compound 568],Giant foxtail plant response rating,[1]; [21],7
same,Giant foxtail plant response rating,[1]; [22],9
same,"Plant response rating, Giant foxtail",[1]; [23],9
same,Giant foxtail plant response rating,[1]; [24],9
same,Giant foxtail plant response rating,[1]; [25],10
same,Giant foxtail plant response rating (0 to 10 scale),"[1]; Preemergence, Rate 250 g/ha",10
same,Giant foxtail plant response rating,[1]; [26],10
same,"Plant response rating, Giant foxtail",[1]; [27],9
same,Crabgrass plant response rating,[2]; [21],8
same,Crabgrass plant response rating,[2]; [22],8
same,"Plant response rating, Crabgrass",[2]; [23],9
same,Crabgrass plant response rating,[2]; [24],7
same,Crabgrass plant response rating,[2]; [25],7
same,Crabgrass plant response rating (0 to 10 scale),"[2]; Preemergence, Rate 250 g/ha",9
same,Crabgrass plant response rating,[2]; [26],10
same,"Plant response rating, Crabgrass",[2]; [27],9
same,"Plant response rating, Sugarbeets",[3]; [28],2
same,Sugarbeets plant response rating,[3]; [24],5
same,Sugarbeets plant response rating,[3]; [25],5
same,Sugarbeets plant response rating (0 to 10 scale),"[3]; Preemergence, Rate 250 g/ha",6
same,Sugarbeets plant response rating,[3]; [26],8
same,"Plant response rating, Sugarbeets",[3]; [29],1
same,"Plant response rating, S. Flatsedge (0 to 10 scale, 0 is no effect, 10 is complete control)",[4]; [30],0
same,"S. Flatsedge plant response rating (0 to 10 scale, 0 is no effect, 10 is complete control)",[4]; [31],0
same,S. Flatsedge plant response rating,[4]; [32],0
same,S. Flatsedge plant response rating,[4]; [33],4
same,Cocklebur plant response rating,[5]; [21],1
same,Cocklebur plant response rating,[5]; [22],1
same,"Plant response rating, Cocklebur",[5]; [23],6
same,Cocklebur plant response rating,[5]; [24],0
same,Cocklebur plant response rating,[5]; [25],0
same,Cocklebur plant response rating (0 to 10 scale),"[5]; Preemergence, Rate 250 g/ha",0
same,Cocklebur plant response rating,[5]; [26],2
same,"Plant response rating, Cocklebur",[5]; [27],1
same,"Plant response rating, Rice (0 to 10 scale, 0 is no effect, 10 is complete control)",[6]; [30],1
same,"Rice plant response rating (0 to 10 scale, 0 is no effect, 10 is complete control)",[6]; [31],1
same,Rice plant response rating,[6]; [32],0
same,Rice plant response rating,[6]; [33],0
same,Blackgrass plant response rating,[7]; [21],8
same,Blackgrass plant response rating,[7]; [22],8
same,"Plant response rating, Blackgrass",[7]; [23],9
same,Blackgrass plant response rating,[7]; [24],5
same,Blackgrass plant response rating,[7]; [25],8
same,Blackgrass plant response rating (0 to 10 scale),"[7]; Preemergence, Rate 250 g/ha",8
same,Blackgrass plant response rating,[7]; [26],9
same,"Plant response rating, Blackgrass",[7]; [27],8
same,B. signalgrass plant response rating,[8]; [21],1
same,B. signalgrass plant response rating,[8]; [22],4
same,"Plant response rating, B. signalgrass",[8]; [23],7
same,B. signalgrass plant response rating,[8]; [24],3
same,B. signalgrass plant response rating,[8]; [25],6
same,"B. signalgrass plant response rating (0 to 10 scale, 0 is no effect, 10 is complete control)","[8]; Preemergence, Rate 250 g/ha",8
same,B. signalgrass plant response rating,[8]; [26],9
same,"Plant response rating, B. signalgrass",[8]; [27],7
same,"Plant response rating, Velvetleaf",[9]; [28],8
same,Velvetleaf plant response rating,[9]; [24],5
same,Velvetleaf plant response rating,[9]; [25],6
same,Velvetleaf plant response rating (0 to 10 scale),"[9]; Preemergence, Rate 250 g/ha",6
same,Velvetleaf plant response rating,[9]; [26],7
same,"Plant response rating, Velvetleaf",[9]; [29],5
same,Corn plant response rating,[10]; [21],0
same,Corn plant response rating,[10]; [22],0
same,"Plant response rating, Corn",[10]; [23],5
same,Corn plant response rating,[10]; [24],0
same,Corn plant response rating,[10]; [25],4
same,Corn plant response rating (0 to 10 scale),"[10]; Preemergence, Rate 250 g/ha",5
same,Corn plant response rating,[10]; [26],9
same,"Plant response rating, Corn",[10]; [27],4
same,"Plant response rating, Wild oats",[11]; [28],6
same,Wild oats plant response rating,[11]; [24],5
same,Wild oats plant response rating,[11]; [25],5
same,Wild oats plant response rating (0 to 10 scale),"[11]; Preemergence, Rate 250 g/ha",6
same,Wild oats plant response rating,[11]; [26],8
same,"Plant response rating, Wild oats",[11]; [29],2
same,"Plant response rating, Soybean",[12]; [28],6
same,Soybean plant response rating,[12]; [24],0
same,Soybean plant response rating,[12]; [25],0
same,Soybean plant response rating (0 to 10 scale),"[12]; Preemergence, Rate 250 g/ha",3
same,Soybean plant response rating,[12]; [26],9
same,"Plant response rating, Soybean",[12]; [29],6
same,Rape plant response rating,[13]; [21],0
same,Rape plant response rating,[13]; [22],0
same,"Plant response rating, Rape",[13]; [23],3
same,Rape plant response rating,[13]; [24],0
same,Rape plant response rating,[13]; [25],0
same,Rape plant response rating (0 to 10 scale),"[13]; Preemergence, Rate 250 g/ha",5
same,Rape plant response rating,[13]; [26],7
same,"Plant response rating, Rape",[13]; [27],2
same,"Plant response rating, Ducksalad (0 to 10 scale, 0 is no effect, 10 is complete control)",[14]; [30],0
same,"Ducksalad plant response rating (0 to 10 scale, 0 is no effect, 10 is complete control)",[14]; [31],0
same,Ducksalad plant response rating,[14]; [32],0
same,Ducksalad plant response rating,[14]; [33],2
same,"Plant response rating, Barnyardgrass (0 to 10 scale, 0 is no effect, 10 is complete control)",[15]; [30],0
same,"Barnyardgrass plant response rating (0 to 10 scale, 0 is no effect, 10 is complete control)",[15]; [31],0
same,Barnyardgrass plant response rating,[15]; [32],3
same,Barnyardgrass plant response rating,[15]; [33],6
same,Nutsedge plant response rating,[16]; [21],0
same,Nutsedge plant response rating,[16]; [22],0
same,"Plant response rating, Nutsedge",[16]; [23],0
same,Nutsedge plant response rating,[16]; [24],0
same,Nutsedge plant response rating,[16]; [25],0
same,Nutsedge plant response rating (0 to 10 scale),"[16]; Preemergence, Rate 250 g/ha",0
same,Nutsedge plant response rating,[16]; [26],3
same,"Plant response rating, Nutsedge",[16]; [27],0
same,Morningglory plant response rating,[17]; [21],7
same,Morningglory plant response rating,[17]; [22],10
same,"Plant response rating, Morningglory",[17]; [23],10
same,Morningglory plant response rating,[17]; [24],0
same,Morningglory plant response rating,[17]; [25],0
same,Morningglory plant response rating (0 to 10 scale),"[17]; Preemergence, Rate 250 g/ha",2
same,Morningglory plant response rating,[17]; [26],6
same,"Plant response rating, Morningglory",[17]; [27],10
same,"Plant response rating, Wheat",[18]; [28],5
same,Wheat plant response rating,[18]; [24],0
same,Wheat plant response rating,[18]; [25],0
same,Wheat plant response rating (0 to 10 scale),"[18]; Preemergence, Rate 250 g/ha",0
same,Wheat plant response rating,[18]; [26],5
same,"Plant response rating, Wheat",[18]; [29],4
same,Bedstraw plant response rating,[19]; [21],0
same,Bedstraw plant response rating,[19]; [22],2
same,Bedstraw plant response rating,[19]; [24],0
same,Bedstraw plant response rating (0 to 10 scale),"[19]; Preemergence, Rate 250 g/ha",3
same,Bedstraw plant response rating,[19]; [26],8
same,"Plant response rating, Redroot pigweed",[20]; [28],2
same,Redroot pigweed plant response rating,[20]; [24],2
same,Redroot pigweed plant response rating,[20]; [25],4
same,Redroot pigweed plant response rating (0 to 10 scale),"[20]; Preemergence, Rate 250 g/ha",4
same,Redroot pigweed plant response rating,[20]; [26],8
same,"Plant response rating, Redroot pigweed",[20]; [29],0
